According to ChEMBL document CHEMBL1201862, “PubChem BioAssay data set” (2004):
The source made the active and inactive calls.

Columns and labels:
[1] = HEK-293T cell viability reduction – luminescence, B-cell screen hits, cytotoxicity control for BCR NF-kB inhibitor project, dose response (AID 489021); type: functional, cell-based;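 also: HEK-293T cells carrying an NF-kB luciferase reporter; cells exposed to compound for about 14 hours before viability readout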
[2] = target: Voltage-gated inwardly rectifying potassium channel KCNH2 (Homo sapiens, UniProt Q12809); assay: concentration-dependent hERG rescue from blockers – cell-based, thallium flux, dose response (AID 2121); type: ADME
Voltage-gated inwardly rectifying potassium channel KCNH2, sequence (Q12809 whole entry): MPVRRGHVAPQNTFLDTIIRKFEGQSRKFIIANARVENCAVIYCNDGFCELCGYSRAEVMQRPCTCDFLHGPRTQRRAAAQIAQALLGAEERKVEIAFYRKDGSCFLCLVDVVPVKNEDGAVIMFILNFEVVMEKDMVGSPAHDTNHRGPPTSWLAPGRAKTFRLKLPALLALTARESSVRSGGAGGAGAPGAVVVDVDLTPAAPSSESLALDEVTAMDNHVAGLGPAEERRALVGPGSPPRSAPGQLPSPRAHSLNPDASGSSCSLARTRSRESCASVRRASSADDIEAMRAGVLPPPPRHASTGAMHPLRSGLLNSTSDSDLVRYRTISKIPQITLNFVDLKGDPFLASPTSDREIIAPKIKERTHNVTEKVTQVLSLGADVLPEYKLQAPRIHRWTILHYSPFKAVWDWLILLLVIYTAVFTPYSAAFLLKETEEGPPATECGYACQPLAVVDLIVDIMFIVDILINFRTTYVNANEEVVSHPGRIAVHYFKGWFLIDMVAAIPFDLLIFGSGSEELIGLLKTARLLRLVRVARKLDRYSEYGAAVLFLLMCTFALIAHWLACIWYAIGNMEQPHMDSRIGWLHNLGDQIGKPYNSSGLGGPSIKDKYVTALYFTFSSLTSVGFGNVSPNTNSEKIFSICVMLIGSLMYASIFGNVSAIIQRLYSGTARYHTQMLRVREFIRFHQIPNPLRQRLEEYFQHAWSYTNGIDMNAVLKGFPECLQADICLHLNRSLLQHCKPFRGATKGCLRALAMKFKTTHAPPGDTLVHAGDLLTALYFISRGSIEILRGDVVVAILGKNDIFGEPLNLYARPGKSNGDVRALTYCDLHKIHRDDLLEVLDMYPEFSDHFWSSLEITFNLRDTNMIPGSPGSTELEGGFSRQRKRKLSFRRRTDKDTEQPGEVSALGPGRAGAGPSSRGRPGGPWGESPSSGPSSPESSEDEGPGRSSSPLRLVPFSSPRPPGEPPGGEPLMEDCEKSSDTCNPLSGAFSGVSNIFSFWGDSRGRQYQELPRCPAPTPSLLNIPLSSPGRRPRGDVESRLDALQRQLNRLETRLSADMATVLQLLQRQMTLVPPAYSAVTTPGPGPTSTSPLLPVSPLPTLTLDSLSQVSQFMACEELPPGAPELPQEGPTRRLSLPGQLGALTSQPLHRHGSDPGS

fMet-Leu-Phe receptor = target: T1, fMet-Leu-Phe receptor (Homo sapiens, UniProt P21462); assay: formyl peptide receptor binders – dose response (AID 519); type: functional
T1 sequence (P21462 whole entry): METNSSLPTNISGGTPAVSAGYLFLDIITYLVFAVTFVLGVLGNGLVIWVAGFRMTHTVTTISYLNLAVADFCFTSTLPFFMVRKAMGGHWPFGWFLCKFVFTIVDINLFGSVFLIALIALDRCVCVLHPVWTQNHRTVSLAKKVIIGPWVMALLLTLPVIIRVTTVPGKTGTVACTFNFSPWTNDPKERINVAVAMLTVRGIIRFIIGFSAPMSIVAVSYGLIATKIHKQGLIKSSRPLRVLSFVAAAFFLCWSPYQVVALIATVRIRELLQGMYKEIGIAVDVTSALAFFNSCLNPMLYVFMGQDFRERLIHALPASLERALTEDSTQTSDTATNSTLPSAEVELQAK

[3] = target: T2, Oxysterols receptor LXR-beta (Homo sapiens, UniProt P55055); assay: LXR agonists, Gal4 luciferase reporter, dose response, counter-screen for ssDAF-12 agonist project, cell-based, luminescence, HEK293, S. stercoralis campaign (AID 720737); type: functional; conditions: read-out: IC50 (the source's name)
T2 sequence (P55055 whole entry): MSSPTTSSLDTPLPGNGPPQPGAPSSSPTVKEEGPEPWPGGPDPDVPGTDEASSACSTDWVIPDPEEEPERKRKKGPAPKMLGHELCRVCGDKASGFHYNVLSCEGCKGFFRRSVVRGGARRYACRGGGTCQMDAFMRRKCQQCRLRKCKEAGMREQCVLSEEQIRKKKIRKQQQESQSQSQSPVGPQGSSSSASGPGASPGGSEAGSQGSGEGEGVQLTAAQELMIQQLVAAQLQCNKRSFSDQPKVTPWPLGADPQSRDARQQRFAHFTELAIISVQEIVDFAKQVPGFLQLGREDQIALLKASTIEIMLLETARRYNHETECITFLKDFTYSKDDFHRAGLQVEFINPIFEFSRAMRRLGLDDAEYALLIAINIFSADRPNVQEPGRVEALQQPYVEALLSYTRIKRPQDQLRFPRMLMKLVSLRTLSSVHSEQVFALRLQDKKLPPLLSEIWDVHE

[4] = Luminescence-based cell-based high throughput dose response assay to identify activators of the DAF-12 from the parasite S. stercoralis (ssDAF-12).; type: functional
[5] = viability loss of HPDE-C7K cells – cell-based, fluorescence, HTS, primary screen (AID 431); type: functional; conditions: Homo sapiens
[6] = HPDE-C7 pancreatic duct cell viability loss – fluorescence, HTS (AID 430); type: functional, cell-based; conditions: Homo sapiens
[7] = target: T3, Small ubiquitin-related modifier 1 (Homo sapiens, UniProt P63165); assay: SUMO1 protein-protein binding blockers, potency – biochemical, FRET, dose response (AID 624383); type: functional; conditions: read-out: IC50_Mean
T3 sequence (P63165 whole entry): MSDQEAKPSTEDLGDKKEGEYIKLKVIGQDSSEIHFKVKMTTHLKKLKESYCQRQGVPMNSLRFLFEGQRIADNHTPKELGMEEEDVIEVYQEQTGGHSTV

[8] = target: T3, Small ubiquitin-related modifier 1; assay: SUMO1 protein interaction blockers, potency – biochemical, fluorescence polarization, uHTS hits, dose response (AID 624382); type: functional; conditions: read-out: IC50_Mean
cells [9] = type: functional, cell-based
cells [10] = type: functional, cell-based; remark: listed apart in the source
[11] = target: E3 ubiquitin-protein ligase Mdm2 (Homo sapiens, UniProt Q00987); assay: MDM2-luc reporter signal enhancers, multi-concentration potency testing, MDM2 ubiquitin-protein ligase inhibitor program, whole-cell format, luminescence detection, 384-well microplate (AID 1394); type: functional;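 also: MDM2 E3 inhibitors raise luminescence so EC50 is for signal enhancement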
E3 ubiquitin-protein ligase Mdm2, sequence (Q00987 whole entry): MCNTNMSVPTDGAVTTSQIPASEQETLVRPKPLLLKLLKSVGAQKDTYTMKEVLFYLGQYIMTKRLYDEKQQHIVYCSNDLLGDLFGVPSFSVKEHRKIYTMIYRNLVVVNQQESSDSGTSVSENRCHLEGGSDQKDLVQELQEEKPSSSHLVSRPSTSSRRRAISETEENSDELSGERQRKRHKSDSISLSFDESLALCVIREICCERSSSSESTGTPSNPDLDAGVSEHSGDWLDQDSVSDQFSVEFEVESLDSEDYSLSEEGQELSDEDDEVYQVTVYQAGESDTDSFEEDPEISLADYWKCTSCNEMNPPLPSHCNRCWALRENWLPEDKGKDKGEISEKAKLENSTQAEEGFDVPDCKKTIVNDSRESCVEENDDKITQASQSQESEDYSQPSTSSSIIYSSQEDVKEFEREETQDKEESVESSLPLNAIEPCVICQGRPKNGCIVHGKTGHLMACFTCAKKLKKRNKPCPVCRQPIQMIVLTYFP

[12] = viability of PTEN-deleted HCT116 cells – cell-based, HCT116 PTEN knockout, dose response (AID 1047); type: functional;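 also: HCT116 colon tumor cells with PTEN knocked out; cells exposed to compound for 60 hours before readout; potency for loss of cell viability measured by luminescence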
[13] = viability of HCT116 lacking mutant beta-catenin – cell-based, human colon tumor, dose response (AID 1045); type: functional;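 also: HCT116 colon tumor cells with beta catenin knocked out; cells exposed to compound for 60 hours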
[14] = target: T4, Long-chain-fatty-acid--AMP ligase FadD28 (Mycobacterium tuberculosis, UniProt P9WQ59); assay: Fluorescence polarization aasay to screen for inhibitors that compete for the binding of FadD28 to a bisubstrate Measured in Biochemical System Using Plate Reader - 2147-01_Inhibitor_Dose_CherryPick_Activity.; type: functional, Mycobacterium tuberculosis H37Rv
T4 sequence (P9WQ59 whole entry): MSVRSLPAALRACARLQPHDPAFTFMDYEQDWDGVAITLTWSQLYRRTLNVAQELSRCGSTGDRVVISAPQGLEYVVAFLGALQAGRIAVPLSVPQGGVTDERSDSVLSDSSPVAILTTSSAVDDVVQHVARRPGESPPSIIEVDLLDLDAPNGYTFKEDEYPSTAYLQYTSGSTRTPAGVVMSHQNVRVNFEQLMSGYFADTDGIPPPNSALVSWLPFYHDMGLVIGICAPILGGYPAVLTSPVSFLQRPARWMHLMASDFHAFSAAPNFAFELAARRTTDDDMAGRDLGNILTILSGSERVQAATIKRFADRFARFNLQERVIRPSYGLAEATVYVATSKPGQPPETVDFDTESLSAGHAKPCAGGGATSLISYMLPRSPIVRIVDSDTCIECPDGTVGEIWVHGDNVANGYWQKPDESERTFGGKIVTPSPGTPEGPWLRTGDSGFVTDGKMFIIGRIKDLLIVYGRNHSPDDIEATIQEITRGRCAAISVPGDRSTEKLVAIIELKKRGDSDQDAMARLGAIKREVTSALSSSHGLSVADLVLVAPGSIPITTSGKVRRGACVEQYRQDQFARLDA

Fatty acid synthase [15] = target: T5, Fatty acid synthase (Homo sapiens, UniProt P49327); assay: inhibition of human FAS-TE enzyme activity – biochemical, kinetic fluorescence intensity, dose response (AID 624326); type: functional;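 also: rate of fluorescence rise from hydrolysis of a fluorogenic O-methyl fluorescein ester substrate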
T5 sequence (P49327 whole entry, the tested form may be a part): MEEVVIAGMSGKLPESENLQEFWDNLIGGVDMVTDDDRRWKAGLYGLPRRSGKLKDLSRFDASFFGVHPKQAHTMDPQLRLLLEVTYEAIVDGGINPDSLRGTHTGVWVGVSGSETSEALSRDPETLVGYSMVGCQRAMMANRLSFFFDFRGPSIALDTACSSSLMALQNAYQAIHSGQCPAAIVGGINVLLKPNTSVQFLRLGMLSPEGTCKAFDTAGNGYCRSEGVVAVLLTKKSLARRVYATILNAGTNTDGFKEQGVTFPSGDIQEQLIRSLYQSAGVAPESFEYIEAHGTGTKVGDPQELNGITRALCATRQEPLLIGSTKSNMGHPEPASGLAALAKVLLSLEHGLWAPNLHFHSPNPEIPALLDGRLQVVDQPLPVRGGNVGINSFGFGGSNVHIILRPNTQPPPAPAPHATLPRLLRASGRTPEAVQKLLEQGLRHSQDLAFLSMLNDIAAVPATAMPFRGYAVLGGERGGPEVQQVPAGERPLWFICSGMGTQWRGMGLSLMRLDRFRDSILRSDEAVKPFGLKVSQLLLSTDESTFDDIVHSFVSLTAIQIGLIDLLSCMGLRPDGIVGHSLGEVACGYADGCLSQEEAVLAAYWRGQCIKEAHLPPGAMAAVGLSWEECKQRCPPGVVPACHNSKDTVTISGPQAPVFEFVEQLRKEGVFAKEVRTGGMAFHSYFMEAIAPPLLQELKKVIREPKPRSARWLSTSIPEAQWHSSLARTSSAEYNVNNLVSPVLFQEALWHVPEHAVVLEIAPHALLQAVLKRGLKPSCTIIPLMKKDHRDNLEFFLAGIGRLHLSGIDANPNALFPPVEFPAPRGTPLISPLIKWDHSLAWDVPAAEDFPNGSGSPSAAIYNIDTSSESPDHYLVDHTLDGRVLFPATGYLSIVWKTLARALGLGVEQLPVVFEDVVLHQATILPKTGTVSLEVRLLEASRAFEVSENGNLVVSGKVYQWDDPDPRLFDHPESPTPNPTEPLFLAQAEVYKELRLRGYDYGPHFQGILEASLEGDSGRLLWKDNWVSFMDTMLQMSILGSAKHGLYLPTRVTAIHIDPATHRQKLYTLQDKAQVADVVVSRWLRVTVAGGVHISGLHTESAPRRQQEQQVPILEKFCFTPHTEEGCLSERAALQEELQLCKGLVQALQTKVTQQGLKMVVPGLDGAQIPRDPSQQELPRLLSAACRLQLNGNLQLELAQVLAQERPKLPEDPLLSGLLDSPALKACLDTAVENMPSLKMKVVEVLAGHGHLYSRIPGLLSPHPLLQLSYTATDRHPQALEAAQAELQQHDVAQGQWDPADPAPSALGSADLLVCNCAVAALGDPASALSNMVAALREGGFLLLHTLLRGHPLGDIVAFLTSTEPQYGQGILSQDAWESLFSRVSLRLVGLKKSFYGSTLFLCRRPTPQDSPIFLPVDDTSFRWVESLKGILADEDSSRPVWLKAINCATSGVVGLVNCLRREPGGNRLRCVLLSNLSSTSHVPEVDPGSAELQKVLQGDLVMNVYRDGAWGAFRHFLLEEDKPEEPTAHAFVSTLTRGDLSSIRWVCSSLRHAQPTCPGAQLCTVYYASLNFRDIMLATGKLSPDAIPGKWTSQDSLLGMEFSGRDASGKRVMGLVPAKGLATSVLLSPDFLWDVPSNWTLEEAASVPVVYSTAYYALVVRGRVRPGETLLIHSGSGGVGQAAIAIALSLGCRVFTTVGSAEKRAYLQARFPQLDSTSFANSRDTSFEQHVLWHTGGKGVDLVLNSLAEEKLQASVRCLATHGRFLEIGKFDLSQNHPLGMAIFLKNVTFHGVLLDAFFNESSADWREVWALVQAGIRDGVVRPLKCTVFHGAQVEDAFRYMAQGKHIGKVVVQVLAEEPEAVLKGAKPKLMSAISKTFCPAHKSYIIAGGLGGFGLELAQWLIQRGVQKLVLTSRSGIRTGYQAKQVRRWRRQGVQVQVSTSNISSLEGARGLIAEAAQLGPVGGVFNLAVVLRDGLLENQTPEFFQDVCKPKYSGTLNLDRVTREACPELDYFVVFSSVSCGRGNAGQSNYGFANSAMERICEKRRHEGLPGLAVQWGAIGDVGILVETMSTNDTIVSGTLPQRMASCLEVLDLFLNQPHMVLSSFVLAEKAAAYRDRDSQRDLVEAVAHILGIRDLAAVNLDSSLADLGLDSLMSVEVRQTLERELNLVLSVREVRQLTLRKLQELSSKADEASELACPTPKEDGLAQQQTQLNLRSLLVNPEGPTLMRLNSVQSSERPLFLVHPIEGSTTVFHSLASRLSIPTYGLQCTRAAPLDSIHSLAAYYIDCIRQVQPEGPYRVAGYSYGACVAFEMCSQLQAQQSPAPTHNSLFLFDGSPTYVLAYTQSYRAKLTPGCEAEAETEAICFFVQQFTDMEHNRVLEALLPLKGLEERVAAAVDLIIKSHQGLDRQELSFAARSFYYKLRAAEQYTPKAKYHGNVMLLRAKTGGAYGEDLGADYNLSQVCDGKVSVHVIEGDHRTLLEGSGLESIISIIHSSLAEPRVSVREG

[16] = target: T6, Hepatocyte nuclear factor 4-alpha (Homo sapiens, UniProt P41235); type: functional, cell-based;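 also: biochemical luminescence-based dose-response counterscreen measuring inhibition of HNF4 dimerization, run alongside a screen for blockers of ABHD5–perilipin-5 interaction; split luciferase complementation of HNF4 fusion proteins in cell lysate measuring dimerization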
T6 sequence (P41235 whole entry): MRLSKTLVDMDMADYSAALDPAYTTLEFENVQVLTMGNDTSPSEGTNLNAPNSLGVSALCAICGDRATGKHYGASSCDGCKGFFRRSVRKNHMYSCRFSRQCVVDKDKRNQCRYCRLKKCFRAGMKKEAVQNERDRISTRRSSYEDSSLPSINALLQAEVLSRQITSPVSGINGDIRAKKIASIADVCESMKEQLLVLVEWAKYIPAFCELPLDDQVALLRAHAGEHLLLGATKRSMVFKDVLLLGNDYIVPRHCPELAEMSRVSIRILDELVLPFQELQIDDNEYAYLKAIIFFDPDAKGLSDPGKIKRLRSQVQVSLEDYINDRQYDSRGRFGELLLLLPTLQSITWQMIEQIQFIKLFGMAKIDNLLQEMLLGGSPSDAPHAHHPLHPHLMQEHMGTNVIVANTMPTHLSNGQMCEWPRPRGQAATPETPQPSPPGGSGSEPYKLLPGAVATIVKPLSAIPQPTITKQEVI

[17] = target: Delta-type opioid receptor (Homo sapiens, UniProt P41143); assay: Counterscreen for agonists of heterodimerization of the mu 1 (OPRM1) and delta 1 (OPRD1) opioid receptors: Luminescence-based cell-based high throughput dose response assay to identify agonists of OPRD1 homodimerization. [Related pubchem assays (depositor defined):AID504326, AID504355, AID504692, AID504904, AID504905]; type: functional
Mu-type opioid receptor = Mu-type opioid receptor (Homo sapiens, UniProt P35372); assay: Counterscreen for agonists of heterodimerization of the mu 1 (OPRM1) and delta 1 (OPRD1) opioid receptors: Luminescence-based cell-based high throughput dose response assay to identify agonists of OPRM1 homodimerization.; type: functional;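 also: U2OS cells expressing OPRM1 and beta-arrestin as split beta-galactosidase partners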
Fatty acid synthase [18] = target: T5, Fatty acid synthase; assay: inhibition of human FAS-TE enzyme activity – biochemical, endpoint fluorescence intensity, uHTS hits, dose response (AID 624327); type: functional;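 also: fluorescence from hydrolysis of an O-methyl fluorescein acyl ester substrate by the enzyme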
[19] = target: 5-hydroxytryptamine receptor 5A (Homo sapiens, UniProt P47898); assay: Counterscreen for agonists of OPRM1-OPRD1 heterodimerization: luminescence-based cell-based high throughput dose response assay to identify agonists of 5-hydroxytryptamine (serotonin) 5A receptor (HTR5A). [Related pubchem assays (depositor defined):AID504326, AID504355, AID504692, AID504904, AID504905]; type: functional
5-hydroxytryptamine receptor 5A, sequence (P47898 whole entry): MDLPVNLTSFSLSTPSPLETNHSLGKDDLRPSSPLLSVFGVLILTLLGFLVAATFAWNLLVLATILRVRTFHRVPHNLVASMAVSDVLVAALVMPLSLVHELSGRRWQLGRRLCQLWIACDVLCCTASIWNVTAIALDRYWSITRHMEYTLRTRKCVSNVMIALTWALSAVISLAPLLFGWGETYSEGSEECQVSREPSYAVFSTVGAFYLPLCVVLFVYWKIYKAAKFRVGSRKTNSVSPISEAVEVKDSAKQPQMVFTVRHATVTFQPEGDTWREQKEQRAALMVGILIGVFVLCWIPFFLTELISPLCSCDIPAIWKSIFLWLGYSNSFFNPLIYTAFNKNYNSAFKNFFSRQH

Paired box protein Pax-8 = Paired box protein Pax-8 (Homo sapiens, UniProt Q06710); assay: PAX8 transcriptional activity inhibition in RMG-I – RMG-I cells, luciferase, cherry-pick, dose response (AID 687027); type: functional, cell-based;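 also: luciferase reporter driven by Pax8 target thyroperoxidase promoter measured by SteadyGlo luminescence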
Paired box protein Pax-8, sequence (Q06710 whole entry, the tested form may be a part): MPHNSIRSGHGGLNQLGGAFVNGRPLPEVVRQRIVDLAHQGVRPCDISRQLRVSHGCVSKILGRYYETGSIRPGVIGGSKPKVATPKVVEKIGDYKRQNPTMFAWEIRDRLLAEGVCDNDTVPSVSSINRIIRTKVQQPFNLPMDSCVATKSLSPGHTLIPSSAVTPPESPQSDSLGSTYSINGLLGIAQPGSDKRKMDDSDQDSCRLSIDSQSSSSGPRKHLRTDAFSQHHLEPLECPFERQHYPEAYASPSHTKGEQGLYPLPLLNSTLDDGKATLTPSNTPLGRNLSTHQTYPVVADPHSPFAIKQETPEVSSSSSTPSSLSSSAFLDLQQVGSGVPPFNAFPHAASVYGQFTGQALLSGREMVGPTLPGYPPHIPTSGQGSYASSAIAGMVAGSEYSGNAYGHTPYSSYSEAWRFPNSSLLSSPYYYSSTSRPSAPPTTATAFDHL

[20] = target: Photoreceptor-specific nuclear receptor (Homo sapiens, UniProt Q9Y5X4); type: functional, cell-based;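 also: CHO-S cells with Gal4-NCOR and VP16-NR2E3 two-hybrid luciferase reporter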
[21] = IGROV1 cell killing – plate reader, dry powder samples, PAX8 inhibitor project, dose response (AID 743043); type: functional, cell-based; conditions: IGROV-1
[22] = general cell-killing toxicity readout – plate reader, dry powder samples, cytotoxicity control for PAX8 inhibitor project, dose response (AID 743021); type: functional, cell-based
[23] = OVCAR-3 cell viability loss – plate reader, dry powder samples, PAX8 inhibitor project, dose response (AID 743044); type: functional, cell-based
[24] = OVCAR8 cell viability loss – plate reader, dry powder samples, PAX8 project, dose response (AID 743197); type: functional, cell-based; conditions: OVCAR-8
P388/ADR = assay: cells; type: functional; conditions: Mus musculus
SN12K1 = assay: cells; type: functional; conditions: Homo sapiens, SN12K1
P388 = assay: cells; type: functional; conditions: Mus musculus, P388

## CCOC(=O)Cc1csc(NC(=S)NC(=O)c2ccc(Cl)cc2)n1
[1]
  IC50: > 80 µM (inactive)
[2]
  EC50: 0.55 µM (active)

## COc1ccc(-c2cn3cccnc3n2)cc1NC(=O)CC(C)C
fMet-Leu-Phe receptor
  Ki: > 66.7 µM (inactive)

## CC(c1nccs1)N(C)C(=O)CCc1nnc(Cc2c[nH]c3ccccc23)o1 (stereo not drawn)
[3]
  EC50: > 67.5 µM (inactive)
[4]
  IC50: > 67.5 µM (inactive)

## OCCN1CCN(c2nc(-c3ccccc3)nc3c2oc2ccccc23)CC1
[5]
  EC50: 10.2 µM (active)
[6]
  EC50: 7.2 µM (active)

## C=CCn1c(NC(=O)c2ccccc2)c(C#N)c2nc3ccccc3nc21
fMet-Leu-Phe receptor
  Ki: > 66.7 µM (inactive)

## O=C(Nc1cccnc1Cl)c1cc(-c2cccc(O)c2)on1
[7]
  IC50: 8.84 µM (active)
[8]
  IC50: > 66.6 µM (inactive)

## CCCN(CCC)C(S)=Nc1cc(C(=O)OC)ccc1C(=O)OC
Cells [9]
  EC50: > 350 µM (not active)
Cells [10]
  EC50: > 350 µM (not active)
[11]
  EC50: 343 µM (not active)

## CC1=CC(C)(C)Nc2ccc(OC(=O)c3ccco3)cc21
[12]
  EC50: 7.39 µM (active)
[5]
  EC50: 6.79 µM (active)
[6]
  EC50: 7.05 µM (active)
[1]
  IC50: 44.7 µM (inactive)
[13]
  EC50: 5.59 µM (active)

## CC(=O)N1CCN(Cc2nc3cc(NC(=O)NC4CCCCC4)ccc3n2C)CC1
[14]
  AC50: 81 µM (active)

## Cc1ccc(CNC(=O)C(Cc2ccccc2)NS(=O)(=O)c2cccs2)cc1 (stereo not drawn)
[14]
  AC50: 58 µM (active)

## CCCOc1ccc(C2C(C(=O)c3ccco3)=C(O)C(=O)N2CCCn2ccnc2)cc1 (stereo not drawn)
fMet-Leu-Phe receptor
  Ki: > 66.7 µM (inactive)

## COc1ccc(-c2cc(C(F)(F)F)nc(SCC(=O)NCc3cnn(C)c3C)n2)cc1OC
[11]
  EC50: 16.3 µM (not active)

## COC(=O)c1sc2nc(-c3ccccc3)nc(N3CCN(C)CC3)c2c1C
[5]
  EC50: > 20 µM (not active)
[6]
  EC50: > 20 µM (not active)

## CSC(=Nc1ccccc1)N=C(SCc1ccccc1)N(C)C
Fatty acid synthase [15]
  IC50: 1.04 µM (active)
[16]
  IC50: 3.95 µM (active)
[17]
  EC50: > 92.4 µM (inactive)
Mu-type opioid receptor
  EC50: > 92.4 µM (inactive)
Fatty acid synthase [18]
  IC50: 1.37 µM (active)
[19]
  EC50: > 92.4 µM (inactive)
Paired box protein Pax-8
  AC50: 4.55 µM (active)
[20]
  IC50: 2.61 µM (active)

## CCOC(=O)c1ccc(NC(=O)c2c(N)n(Cc3ccccc3)c(=O)[nH]c2=O)cc1
[7]
  IC50: 1.43 µM (active)
[8]
  IC50: > 66.6 µM (inactive)

## C[C@@H]1CCCCO[C@H](CN(C)C(=O)Nc2cccc3ccccc23)[C@H](C)CN([C@@H](C)CO)C(=O)c2cc(NS(=O)(=O)c3ccc(Cl)cc3)ccc2O1
[21]
  AC50: 51.8 µM (active)
[22]
  AC50: 55.2 µM (active)
[23]
  AC50: 16.8 µM (active)
Paired box protein Pax-8
  AC50: 5.39 µM (active)
[24]
  AC50: 59.6 µM (active)

## CCCCCCCC/C=C\CCCCCCCC(=O)O [OLEIC ACID]
P388/ADR
  GI50: 78.9 µM (inactive)
SN12K1
  GI50: 101 µM (inactive)
[2]
  EC50: 10.4 µM (active)
P388
  GI50: 115 µM (inactive)
